Legend:
[1] = target: T1, human GnRHR1 (Homo sapiens, UniProt P30968); experiment: Inhibitory effect for the change of calcium levels in GnRH-stimulated cells (hGnRHR1#1 HEK293 cells); type: cell-based; conditions: HEK293 cells stably expressing human GnRHR1; 10 nM GnRH added; FLIPR Calcium Assay Kit; read-out: IC50 (drug concentration at which 50% GnRH-stimulated intracellular calcium flux was inhibited)
T1 construct: expressed in transfected cells
T1 sequence (P30968 1-328): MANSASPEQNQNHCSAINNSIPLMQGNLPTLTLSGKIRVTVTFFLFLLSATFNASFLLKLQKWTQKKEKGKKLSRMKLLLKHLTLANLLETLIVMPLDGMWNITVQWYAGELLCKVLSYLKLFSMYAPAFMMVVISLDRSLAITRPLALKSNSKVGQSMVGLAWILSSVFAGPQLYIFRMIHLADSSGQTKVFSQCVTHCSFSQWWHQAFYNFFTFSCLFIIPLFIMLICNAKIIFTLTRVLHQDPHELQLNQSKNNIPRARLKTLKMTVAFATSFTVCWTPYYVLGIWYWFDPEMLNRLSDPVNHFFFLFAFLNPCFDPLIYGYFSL
Description: 1) Cloning and Construction of the Vector Expressing Human GnRH Receptor1 (GnRHR1)
Using cDNA derived from human pituitary (BECTON DICKINSON) as a template, the DNA fragment coding 45 to 1115 by of human GnRHR1 (Accession No. L03380), which was reported by Kakar et al., was amplified by PCR method and inserted into the multi-cloning site of pcDNA3.1(+) (Invitrogen). The DNA sequence inserted was perfectly matched to the previously reported sequence.
2) Establishment of Cell Line Stably Expressing Human GnRH Receptor1 HEK293 Cells
The expression vector of human GnRHR1 gene, was digested by XhoI into a linear DNA. The linear DNA was transfected into HEK293 cells by means of lipofection (Lipofectamine2000: Invitrogen). Neomycin resistant cell lines were selected by culture in the medium containing G418 (Invitrogen) at 1 mg/mL, and then the change of calcium levels in GnRH-stimulated cells was measured by the method described below.
3) Assay of Inhibitory Effect for the Change of Calcium Levels in GnRH-Stimulated Cells
Antagonizing effect of compounds for human GnRHR1 was evaluated by depression of calcium levels in GnRH-stimulated cells. hGnRHR1#1 cells were seeded into a 96-well culture plate at a density of 1.5×10^5 cells/well and cultured for a day. […] Then, intracellular calcium levels were determined under the following condition by using FLEX STATION (Molecular Devices). […]

[2] = Assay for oral absorbability: plasma drug concentration after oral administration; type: in vivo; conditions: overnight fasted male SD rats, 3 mg/kg
Method: Assay for Oral Absorbability
1) Preparation of the Samples for Measurement of the Drug Concentration After Oral Administration
As experimental animal, overnight fasted SD rats (Charles River, male, 7 weeks of age, 170-210 g) were used. Three mg of a test compound was dissolved by adding 0.2 mL of N,N-dimethylacetoamide, 9.794 mL of 0.5% aqueous methylcellulose solution and 0.006 mL of 2N NaOH, and then 0.3 mg/mL solution was prepared. The body weights of rats were measured, and the solution of the test compound was administered orally at the dose of 10 mL/kg (3 mg/kg). The oral administration was performed with gastric tube for rat and 2.5 mL syringe. The sampling times for collection of blood were 15, 30, 60, 120, 240 and 360 minutes after the oral administration. The blood was centrifuged, and the plasma was used as the sample for measurement of the drug concentration in blood.
2) Measurement of the Drug Concentration
To 0.025 mL of the plasma obtained in 1) described above, 0.1 mL of an adequate internal standard material was added according to the usual method, and then deproteinization was performed by adding 0.875 mL of acetonitrile. After centrifugation, 0.005 mL of the supernatant was injected into LC-MS/MS. The drug concentration in plasma was measured by LC-MS/MS method under the conditions as follows. […]

- IC50 [1]: 91 nM
- C360 (plasma drug concentration at 360 minutes after administration) ([2]; 360 minutes): 490 ng/mL
- Cmax ([2]; rat, read-out: Cmax (maximum plasma drug concentration)): 2380 ng/mL
SMILES: COC(=O)N(C)CCOc1ccc(F)c(F)c1COc1ccc(F)c(-n2c(=O)[nH]c3csc(C(=O)O)c3c2=O)c1 [Example 8]

Source: patent US20100130514A1, “FUSED HETEROCYCLIC DERIVATIVE, PHARMACEUTICAL COMPOSITION COMPRISING THE DERIVATIVE, AND USE OF THE COMPOSITION FOR MEDICAL PURPOSES” (Kissei Pharmaceutical Co., Ltd., priority 2007, published 2010)
